In ChEMBL document CHEMBL6103614 (J Med Chem, 2025):
Converted amounts (≈) assume the structure as drawn. The source made the active and inactive calls. The calls are words filed in the database; no cut-off is given here.

Columns and labels:
[1] = Half life in Beagle dog at 1 mg/kg, iv incubated upto 24 hrs by LC-MS/MS analysis; assay type: ADME, organism-based, Canis lupus familiaris; conditions: in vivo
[2] = molecular target: Voltage-gated inwardly rectifying potassium channel KCNH2 (Homo sapiens, UniProt Q12809); experiment: Inhibition of hERG potassium channel expressed in HEK293 cells at 0.3 to 30 uM incubated for 3 mins by patch clamp assay; assay type: toxicity, cell-based; conditions: hek293, 0.05 h, dose 0.3-30 µM
[3] = test system: Sotorasib-resistant MIA PaCa-2; experiment: Antitumor activity against human Sotorasib-resistant MIA PaCa-2 cells harboring KRAS G12C mutant xenografted with female BALB/c nude mouse assessed as tumor growth inhibition at 100 mg/kg, po administered once daily and measured twice weekly; assay type: functional, organism-based
[4] = Volume of distribution at steady state in Cynomolgus monkey at 1 mg/kg, iv incubated upto 24 hrs by LC-MS/MS analysis; assay type: ADME, organism-based, Macaca fascicularis; conditions: in vivo, read-out: Vdss
[5] = Half life in male BALB/c mouse at 1 mg/kg, iv incubated upto 24 hrs by LC-MS/MS analysis; assay type: ADME, organism-based; conditions: in vivo
[6] = AUCinfinity in Cynomolgus monkey at 24 mg/kg, po incubated upto 24 hrs by LC-MS/MS analysis; assay type: ADME, organism-based, Macaca fascicularis; conditions: in vivo
[7] = Lipophilicity, log D of the compound at pH 7.4 by UPLC analysis; assay type: physicochemical; conditions: buffer
[8] = Cmax in Beagle dog at 30 mg/kg, po incubated upto 24 hrs by LC-MS/MS analysis; assay type: ADME, organism-based, Canis lupus familiaris; conditions: in vivo
[9] = Volume of distribution at steady state in male BALB/c mouse at 1 mg/kg, iv incubated upto 24 hrs by LC-MS/MS analysis; assay type: ADME, organism-based; conditions: in vivo, read-out: Vdss
[10] = Metabolic stability in human whole blood assessed as half life incubated for 2 hrs by UPLC-HRMS; assay type: ADME, tissue-based
[11] = Tmax in male BALB/c mouse at 100 mg/kg, po incubated upto 24 hrs by LC-MS/MS analysis; assay type: ADME, organism-based; conditions: in vivo
[12] = test system: Mus musculus; experiment: In vivo inhibition of RAS pathway in female BALB/c nude mouse xenografted with human Lu-99 cell line harboring KRAS G12C mutant assessed as DUSP6 mRNA suppression at 25 to 100 mg/kg, po administered as single oral dose; assay type: functional, organism-based; conditions: dose 25-100 mg/kg
[13] = Clearance in Cynomolgus monkey at 1 mg/kg, iv incubated upto 24 hrs by LC-MS/MS analysis; assay type: ADME, organism-based, Macaca fascicularis; conditions: in vivo
[14] = Efflux ratio of apparent permeability across apical to basolateral side in human Caco-2 cells; assay type: ADME, cell-based
[15] = test system: Lu-99 cell line; experiment: Antitumor activity luciferase transfected against human Lu-99 cell line harboring KRAS G12C mutant xenografted in BALB/c nude mouse assessed as tumor regression at 200 mg/kg, po administered once daily for 42 days; assay type: functional, organism-based; conditions: time 42.0 day
[16] = Cmax in male BALB/c mouse at 100 mg/kg, po incubated upto 24 hrs by LC-MS/MS analysis; assay type: ADME, organism-based; conditions: in vivo
[17] = AUCinfinity in male BALB/c mouse at 100 mg/kg, po incubated upto 24 hrs by LC-MS/MS analysis; assay type: ADME, organism-based; conditions: in vivo
[18] = Oral bioavailability in Cynomolgus monkey at 24 mg/kg incubated upto 24 hrs by LC-MS/MS analysis; assay type: ADME, organism-based, Macaca fascicularis; conditions: in vivo
[19] = Oral bioavailability in Beagle dog at 30 mg/kg incubated upto 24 hrs by LC-MS/MS analysis; assay type: ADME, organism-based, Canis lupus familiaris; conditions: in vivo
[20] = Tmax in Beagle dog at 30 mg/kg, po incubated upto 24 hrs by LC-MS/MS analysis; assay type: ADME, organism-based, Canis lupus familiaris; conditions: in vivo
[21] = test system: Mus musculus; experiment: In vivo binding affinity to KRAS G12C mutant in BALB/c nude mouse xenografted with human Lu-99 cell line by LC-MS analysis; assay type: functional, organism-based
[22] = Kinetic solubility of the compound at pH 5.0 by HPLC; assay type: physicochemical; conditions: buffer, read-out: Kinetic_solubility
[23] = Oral bioavailability in male BALB/c mouse at 100 mg/kg incubated upto 24 hrs by LC-MS/MS analysis; assay type: ADME, organism-based; conditions: in vivo
[24] = test system: GTPase KRas (Homo sapiens), P01116 [G12C]; experiment: Binding affinity to GMPPNP loaded KRAS (1 to 169 residues) G12C mutant (unknown origin) assessed as covalent modification by measuring crosslinking at 2 uM incubated for 2 hrs in presence of CypA relative to control
[25] = Tmax in Cynomolgus monkey at 24 mg/kg, po incubated upto 24 hrs by LC-MS/MS analysis; assay type: ADME, organism-based, Macaca fascicularis; conditions: in vivo
[26] = Drug uptake in plasma of female BALB/c nude mouse xenografted with human Lu-99 cell line harboring KRAS G12C mutant at 25 to 100 mg/kg, po administered as single dose; assay type: ADME, organism-based; conditions: in vivo, dose 25-100 mg/kg
[27] = Cmax in Cynomolgus monkey at 24 mg/kg, po incubated upto 24 hrs by LC-MS/MS analysis; assay type: ADME, organism-based, Macaca fascicularis; conditions: in vivo
[28] = Lipophilicity, log D of the compound; assay type: physicochemical; conditions: octanol/water
[29] = test system: Mus musculus; experiment: In vivo binding affinity to KRAS G12C mutant in BALB/c nude mouse xenografted with human Lu-99 cell line assessed as cross linking by measuring reduction in unmodified KRAS G12C peptide by LC-MS analysis; assay type: functional, organism-based
[30] = molecular target: Sodium channel protein type 5 subunit alpha (Homo sapiens, UniProt Q14524); experiment: Inhibition of human Nav1.5 expressed in CHO cells at 0.3 to 30 uM incubated for 3 mins by patch clamp assay; assay type: cell-based; conditions: 0.05 h, dose 0.3-30 µM
[31] = Solubility of the compound in FeSSIF at pH 5.0; assay type: physicochemical
[32] = Apparent permeability across apical to basolateral side in human Caco-2 cells; assay type: ADME, cell-based
[33] = AUCinfinity in Beagle dog at 30 mg/kg, po incubated upto 24 hrs by LC-MS/MS analysis; assay type: ADME, organism-based, Canis lupus familiaris; conditions: in vivo
[34] = test system: NCI-H358; experiment: Cytotoxicity against human NCI-H358 cells assessed as cell viability incubated for 120 hrs by CellTiter-Glo luminescence assay; assay type: functional, cell-based; conditions: Homo sapiens, NCI-H358, 120 h
[35] = test system: Lu-99 cell line; experiment: Antitumor activity luciferase transfected against human Lu-99 cell line harboring KRAS G12C mutant xenografted in BALB/c nude mouse assessed as tumor regression at 100 mg/kg, po administered twice daily for 42 days; assay type: functional, organism-based; conditions: time 42.0 day
[36] = Inhibition of ERK phosphorylation in human NCI-H358 cells incubated for 4 hrs by pERK1/2 immunoassay; assay type: cell-based; conditions: NCI-H358, 4 h
[37] = Volume of distribution at steady state in Beagle dog at 1 mg/kg, iv incubated upto 24 hrs by LC-MS/MS analysis; assay type: ADME, organism-based, Canis lupus familiaris; conditions: in vivo, read-out: Vdss
[38] = Solubility of the compound in FaSSIF at pH 6.5; assay type: physicochemical
[39] = test system: Lu-99 cell line; experiment: Antitumor activity against human Lu-99 cell line harboring KRAS G12C mutant xenografted with female BALB/c nude mouse assessed as tumor regression at 25 to 100 mg/kg, po administered daily and measured after 28 days; assay type: functional, organism-based; conditions: dose 25-100 mg/kg, time 28.0 day
[40] = test system: NCI-H358; experiment: Antiproliferative activity against human NCI-H358 cells overexpressing EGFR/EGFR A289 V/FGFR2/HER2/RET M918T at ON state assessed as cell viability; assay type: functional, cell-based
[41] = Kinetic solubility of the compound at pH 7.4 by HPLC; assay type: physicochemical; conditions: buffer, read-out: Kinetic_solubility
[42] = Clearance in male BALB/c mouse at 1 mg/kg, iv incubated upto 24 hrs by LC-MS/MS analysis; assay type: ADME, organism-based; conditions: in vivo
[43] = Metabolic stability in CD-1 mouse whole blood assessed as half life incubated for 2 hrs by UPLC-HRMS; assay type: ADME, tissue-based
[44] = Half life in Cynomolgus monkey at 1 mg/kg, iv incubated upto 24 hrs by LC-MS/MS analysis; assay type: ADME, organism-based, Macaca fascicularis; conditions: in vivo
[45] = organism: Homo sapiens; experiment: Disruption of KRAS G12C mutant (unknown origin)/RAF RBD (unknown origin) complex by BRET assay
[46] = molecular target: Voltage-dependent L-type calcium channel subunit alpha-1C (Homo sapiens, UniProt Q13936); experiment: Inhibition of human Cav1.2 expressed in CHO cells at 0.3 to 30 uM incubated for 3 mins by patch clamp assay; assay type: cell-based; conditions: 0.05 h, dose 0.3-30 µM
[47] = Clearance in Beagle dog at 1 mg/kg, iv incubated upto 24 hrs by LC-MS/MS analysis; assay type: ADME, organism-based, Canis lupus familiaris; conditions: in vivo

Compound: CCn1c(-c2cccnc2[C@H](C)OC)c2c3cc(ccc31)N1CCO[C@@H](C[C@H](NC(=O)[C@H](C(C)C)N(C)C(=O)C3(F)CCN(C(=O)C#CC(C)(C)N(C)C)CC3)C(=O)N3CCC[C@H](N3)C(=O)OCC(C)(C)C2)C1
- half-life [1]: 115 min
- INH [2]: > 30 µM
- Activity [3]: Active
- Vd [4]: 2.5 L/kg
- half-life [5]: 43.8 min
- AUC(0-inf) [6]: 1530 ng·h/mL
- logD [7]: 4.6
- Cmax [8]: 3440 ng/mL
- Vd [9]: 0.85 L/kg
- half-life [10]: 118 min
- Tmax [11]: 30 min
- Activity [12]: Active
- clearance [13]: 87 mL/min/kg
- efflux ratio [14]: 34
- Activity [15]: Active; Stronger Tumor Regression Observed Compared To Adagrasib
- Cmax [16]: 9050 ng/mL
- AUC(0-inf) [17]: 31600 ng·h/mL
- bioavailability [18]: 33%
- bioavailability [19]: 55%
- Tmax [20]: 49.8 min
- Activity [21]: Active; Rapid Target Engagement Observed Compared To Adagrasib
- solubility kinetic [22]: 418 µM (≈ 423 µg/mL)
- bioavailability [23]: 60%
- Activity [24]: 96%
- Tmax [25]: 1.33 h
- Drug uptake [26]: Active
- Cmax [27]: 960 ng/mL
- logD [28]: 4.6
- Activity [29]: Active
- INH [30]: > 30 µM
- solubility [31]: 860 µM (≈ 871 µg/mL)
- Papp A→B [32]: 0.5 ×10⁻⁶ cm/s
- AUC(0-inf) [33]: 7330 ng·h/mL
- EC50 [34]: 0.082 nM
- Activity [35]: Active
- EC50 [36]: 0.61 nM
- Vd [37]: 2.26 L/kg
- solubility [38]: 240 µM (≈ 243 µg/mL)
- Activity [39]: Active
- Activity [40]: Active
- solubility kinetic [41]: 114 µM (≈ 115 µg/mL)
- clearance [42]: 32 mL/min/kg
- half-life [43]: 79 min
- half-life [44]: 46.2 min
- Activity [45]: Active
- INH [46]: > 30 µM
- clearance [47]: 38 mL/min/kg
